Tested on: angiogenesis genes in dermal microvascular endothelial cells
Experiment: Real time RT-PCR of angiogenesis gene expression during endothelial tube formation
Format: cell-based
Conditions: 1 μM SM, 24 hours

## COc1ccc(CC2C(=O)NC(C)C(=O)N(C)C3Cc4ccc(cc4)Oc4cc(ccc4O)CC(C(=O)NC(C)C(=O)NC(C)C(=O)N2C)N(C)C3=O)cc1 (centres unmarked) [compound 259969]
  Log2 fold-change of gene expression: 1839: −4.2
  Log2 fold-change of gene expression: 4247: 0.2
  Log2 fold-change of gene expression: 5569: 4.6
  Log2 fold-change of gene expression: 8131: −0.2
  Log2 fold-change of gene expression: 9569: −1.7
  Log2 fold-change of gene expression: 10988: 0.3
  Log2 fold-change of gene expression: 23001: 0.3
  Log2 fold-change of gene expression: 55332: 0.1
  Log2 fold-change of gene expression: 57722: −0.1
  Log2 fold-change of gene expression: 58488: 0.4
  Log2 fold-change of gene expression: 90780: −2.4
  Log2 fold-change of gene expression: 134265: −0.6
  Log2 fold-change of gene expression: AKT1: −1.4
  Log2 fold-change of gene expression: ANGPT1: 1.4
  Log2 fold-change of gene expression: ANGPT2: 0.9
  Log2 fold-change of gene expression: ANGPTL3: 3.6
  Log2 fold-change of gene expression: ANGPTL4: 1.5
  Log2 fold-change of gene expression: ANPEP: 0.2
  Log2 fold-change of gene expression: ANTXR1: −1.4
  Log2 fold-change of gene expression: APOE: 0.8
  Log2 fold-change of gene expression: ARHGEF1: −0.8
  Log2 fold-change of gene expression: Acvrl1: −1.9
  Log2 fold-change of gene expression: Adcy4: −0.6
  Log2 fold-change of gene expression: BAL1: 0.4
  Log2 fold-change of gene expression: BMP1: −0.6
  Log2 fold-change of gene expression: C1orf54: −6.1
  Log2 fold-change of gene expression: CALD1: −0.6
  Log2 fold-change of gene expression: CCL2: 3.6
  Log2 fold-change of gene expression: CCL11: 0.0
  Log2 fold-change of gene expression: CD248: 0.6
  Log2 fold-change of gene expression: CDH5: −1.6
  Log2 fold-change of gene expression: CENTD3: −1.0
  Log2 fold-change of gene expression: CLIC1: 1.8
  Log2 fold-change of gene expression: COL4A3: 3.2
  Log2 fold-change of gene expression: COL18A1: 1.9
  Log2 fold-change of gene expression: COMT: −1.7
  Log2 fold-change of gene expression: CST4: 0.4
  Log2 fold-change of gene expression: CTTNBP2NL: −1.0
  Log2 fold-change of gene expression: CXCL3: 11.6
  Log2 fold-change of gene expression: CXCL5: 10.2
  Log2 fold-change of gene expression: CXCL6: 1.0
  Log2 fold-change of gene expression: CXCL9: 0.5
  Log2 fold-change of gene expression: CXCL10: 2.8
  Log2 fold-change of gene expression: Calcr1: −2.9
  Log2 fold-change of gene expression: Caskin2: −2.3
  Log2 fold-change of gene expression: Ccbp2: 5.6
  Log2 fold-change of gene expression: Cldn5: 0.4
  Log2 fold-change of gene expression: DGKG: 6.1
  Log2 fold-change of gene expression: DKK3: −2.7
  Log2 fold-change of gene expression: DLL4: −4.1
  Log2 fold-change of gene expression: DUT: −1.9
  Log2 fold-change of gene expression: EFNA1: 7.8
  Log2 fold-change of gene expression: EFNA3: 0.3
  Log2 fold-change of gene expression: EFNB2: −6.6
  Log2 fold-change of gene expression: EGF: 0.2
  Log2 fold-change of gene expression: ENG: −0.7
  Log2 fold-change of gene expression: EPHB4: 0.3
  Log2 fold-change of gene expression: EREG: 9.3
  Log2 fold-change of gene expression: ESAM1: −1.6
  Log2 fold-change of gene expression: EXTL3: 0.4
  Log2 fold-change of gene expression: Egf17: −2.3
  Log2 fold-change of gene expression: Ehd4: −0.7
  Log2 fold-change of gene expression: Entpd1: −5.6
  Log2 fold-change of gene expression: Epas1: 1.5
  Log2 fold-change of gene expression: EphB1: 0.6
  Log2 fold-change of gene expression: Erg: −3.9
  Log2 fold-change of gene expression: FGF1: 5.7
  Log2 fold-change of gene expression: FGF2: 2.5
  Log2 fold-change of gene expression: FGFR3: 1.2
  Log2 fold-change of gene expression: FIGF: 0.2
  Log2 fold-change of gene expression: FLT1: −0.7
  Log2 fold-change of gene expression: Fgd5: −0.8
  Log2 fold-change of gene expression: GPCR124: −4.6
  Log2 fold-change of gene expression: GRRP1: 0.6
  Log2 fold-change of gene expression: Grp116: −5.5
  Log2 fold-change of gene expression: HAND2: 1.4
  Log2 fold-change of gene expression: HGF: 1.5
  Log2 fold-change of gene expression: HIF1A: 0.7
  Log2 fold-change of gene expression: HPSE: 2.6
  Log2 fold-change of gene expression: Hspa12b: −10.2
  Log2 fold-change of gene expression: ID1: 1.5
  Log2 fold-change of gene expression: ID3: 2.5
  Log2 fold-change of gene expression: IFNA1: 1.1
  Log2 fold-change of gene expression: IFNB1: 1.6
  Log2 fold-change of gene expression: IFNG: 6.0
  Log2 fold-change of gene expression: IGF1: −2.6
  Log2 fold-change of gene expression: IL1B: 1.3
  Log2 fold-change of gene expression: IL6: 9.4
  Log2 fold-change of gene expression: IL8: 11.3
  Log2 fold-change of gene expression: ITGAV: −0.9
  Log2 fold-change of gene expression: ITGB3: −2.9
  Log2 fold-change of gene expression: Icam1: 2.8
  Log2 fold-change of gene expression: Icam2: 7.5
  Log2 fold-change of gene expression: JAG1: 1.7
  Log2 fold-change of gene expression: KDR: −0.5
  Log2 fold-change of gene expression: Kifc1: −4.8
  Log2 fold-change of gene expression: LAMAS5: −0.8
  Log2 fold-change of gene expression: LECT1: −8.0
  Log2 fold-change of gene expression: LEP: 0.8
  Log2 fold-change of gene expression: Lasts2: 1.5
  Log2 fold-change of gene expression: Lrrk1: 0.3
  Log2 fold-change of gene expression: MDK: −1.0
  Log2 fold-change of gene expression: MMP2: −0.1
  Log2 fold-change of gene expression: MMP9: 4.3
  Log2 fold-change of gene expression: MMP11: 0.1
  Log2 fold-change of gene expression: MRC2: −0.6
  Log2 fold-change of gene expression: Mmm2: −7.5
  Log2 fold-change of gene expression: Myo1b: −3.0
  Log2 fold-change of gene expression: NID1: −3.6
  Log2 fold-change of gene expression: NM023516: 0.9
  Log2 fold-change of gene expression: NRP1: −2.6
  Log2 fold-change of gene expression: NRP2: −3.5
  Log2 fold-change of gene expression: Notch4: −0.3
  Log2 fold-change of gene expression: Npr3: 2.7
  Log2 fold-change of gene expression: PALD: −1.3
  Log2 fold-change of gene expression: PDCD2: −1.7
  Log2 fold-change of gene expression: PDGFA: 1.1
  Log2 fold-change of gene expression: PECAM1: −3.0
  Log2 fold-change of gene expression: PGF: −7.2
  Log2 fold-change of gene expression: PLAU: 3.8
  Log2 fold-change of gene expression: PLG: −1.0
  Log2 fold-change of gene expression: PNMT: −0.1
  Log2 fold-change of gene expression: PROK2: 2.2
  Log2 fold-change of gene expression: PTGS1: 2.9
  Log2 fold-change of gene expression: PTPRCAP: 0.9
  Log2 fold-change of gene expression: Pltp: 1.4
  Log2 fold-change of gene expression: Ptprb: −0.1
  Log2 fold-change of gene expression: Ptprm: 1.7
  Log2 fold-change of gene expression: RAMP2: −5.9
  Log2 fold-change of gene expression: RASD2: 0.5
  Log2 fold-change of gene expression: Rasip1: −1.1
  Log2 fold-change of gene expression: S1PR1: −0.3
  Log2 fold-change of gene expression: SERPINF1: 6.5
  Log2 fold-change of gene expression: SPHK1: 3.2
  Log2 fold-change of gene expression: STAB1: 0.5
  Log2 fold-change of gene expression: Sdc4: 4.0
  Log2 fold-change of gene expression: Sdpr: 0.9
  Log2 fold-change of gene expression: Slc43a3: 0.2
  Log2 fold-change of gene expression: Slco2a1: −2.4
  Log2 fold-change of gene expression: TEK: 1.6
  Log2 fold-change of gene expression: TGFA: 8.7
  Log2 fold-change of gene expression: TGFB1: 0.3
  Log2 fold-change of gene expression: TGFB2: 1.3
  Log2 fold-change of gene expression: TGFBR1: 1.1
  Log2 fold-change of gene expression: THBS1: −0.1
  Log2 fold-change of gene expression: THBS2: 2.6
  Log2 fold-change of gene expression: THY1: −3.0
  Log2 fold-change of gene expression: TIMP1: 2.5
  Log2 fold-change of gene expression: TIMP2: 0.0
  Log2 fold-change of gene expression: TIMP3: −0.6
  Log2 fold-change of gene expression: TNF: 9.3
  Log2 fold-change of gene expression: TNS1: −0.3
  Log2 fold-change of gene expression: TNS3: −8.0
  Log2 fold-change of gene expression: TRA2B: 0.6
  Log2 fold-change of gene expression: TYMP: 0.1
  Log2 fold-change of gene expression: VEGFA: 5.7
  Log2 fold-change of gene expression: VEGFC: 1.9
  Log2 fold-change of gene expression: VGLL4: 1.3
  Log2 fold-change of gene expression: Vwf: −5.4
  Log2 fold-change of gene expression: copa: −2.1
  Log2 fold-change of gene expression: itbp4: −1.7
  Log2 fold-change of gene expression: ralb: 0.7
  Log2 fold-change of gene expression: stard9: 0.0
1st listing (r49)
  Log2 fold-change of gene expression: B2M: 1.2
1st listing (r50)
  Log2 fold-change of gene expression: HPRT1: 0.6
1st listing (r51)
  Log2 fold-change of gene expression: RPL13A: 1.2
1st listing (r52)
  Log2 fold-change of gene expression: GADPH: −1.0
1st listing (r53)
  Log2 fold-change of gene expression: ACTB: −2.5
1st listing (r74)
  Log2 fold-change of gene expression: PLXDC1: 2.3
1st listing (r91)
  Log2 fold-change of gene expression: TNFAIP2: 4.6
1st listing (r95)
  Log2 fold-change of gene expression: Robo4: −4.1
1st listing (r134)
  Log2 fold-change of gene expression: 151516: 0.5
2nd listing (r92)
  Log2 fold-change of gene expression: TNFAIP2: 4.7
2nd listing (r97)
  Log2 fold-change of gene expression: B2M: 1.5
2nd listing (r98)
  Log2 fold-change of gene expression: HPRT1: −0.5
2nd listing (r99)
  Log2 fold-change of gene expression: RPL13A: 0.7
2nd listing (r100)
  Log2 fold-change of gene expression: GADPH: 0.0
2nd listing (r101)
  Log2 fold-change of gene expression: ACTB: −2.2
2nd listing (r104)
  Log2 fold-change of gene expression: PLXDC1: −2.4
2nd listing (r139)
  Log2 fold-change of gene expression: 151516: 0.5
2nd listing (r188)
  Log2 fold-change of gene expression: Robo4: 0.3
3rd listing (r145)
  Log2 fold-change of gene expression: B2M: 0.5
3rd listing (r146)
  Log2 fold-change of gene expression: HPRT1: 0.8
3rd listing (r147)
  Log2 fold-change of gene expression: RPL13A: 0.0
3rd listing (r148)
  Log2 fold-change of gene expression: GADPH: −1.7
3rd listing (r149)
  Log2 fold-change of gene expression: ACTB: −2.2
4th listing (r193)
  Log2 fold-change of gene expression: B2M: 0.8
4th listing (r194)
  Log2 fold-change of gene expression: HPRT1: 0.5
4th listing (r195)
  Log2 fold-change of gene expression: RPL13A: 0.0
4th listing (r196)
  Log2 fold-change of gene expression: GADPH: −2.1
4th listing (r197)
  Log2 fold-change of gene expression: ACTB: 0.4

— US9504729B2, “Antiangiogenic small molecules and methods of use” (The United States of America, as represented by the …, priority 2009, dated 2016)
